This note sets out measurements from patent US8193224B2, “Medicinal composition for prevention or treatment of parasitic protozoan infection” (Fujifilm Corporation, priority 2004, dated 2012).

Common to all, as to format: cell-based
Data set [1] is described as follows: Growth inhibition test of rat L6 cells. The following applies: L6 cells (rat skeletal myoblast), Alamar Blue (Table 3), read-out: 50% growth inhibiting concentration Cytotoxicity L6. On the procedure:
Rat derived-L6 cells (rat skeletal myoblast cell) were used. As medium, RPMI1640 medium was supplemented so that L-glutamin (200 mM) is 1%, and fetal bovine serum 10%, and the medium was cultured under CO2 concentration 5%, at 37° C. The compounds of the present invention and the target drugs to be used in the test were dissolved in DMSO, to make a test solution of a predetermined concentration. Pre-culture was conducted and medium containing cells which have entered the logarithmic growth phase was taken to wells of a 96-well culture plate. Then, a test solution containing drug of a predetermined concentration or a drug-free DMSO was added. Test solutions were taken by duplicates. Culture plate was cultured for 72 hours in an incubator, to test the growth inhibition activity. Test was conducted as follows.
10 μl of Alamar Blue aqueous solution was added to each well, and the resultant was further cultured for 2 hours. Next, the culture plate was placed on a fluorescent micro-plate reader (Spectramax Gemeni XS; US Molecular Device), radiated at an excited wavelength of 536 nm. Fluorescent intensity was measured at 588 nm, and residual rate of L6 cells of the test solution added group, and that of the control was calculated. Based on the cell residual rate obtained in the above, growth inhibition rate to L6 cells was calculated, to obtain a 50% growth inhibition concentration (EC50). Growth inhibition rate (%)={(C−A)/(B−A)}×100 A: primary cell count B: cell count of control, 3 days after C: cell count of wells added with a sample, 3 days after […]
A general note: The colour change of resazurin is a common sign of viable cells or microbes.

The subject of data set [2] is Trypanosoma brucei rhodensiense (STIB 900 strain). Put plainly: African trypanosome protozoa growth inhibition screening test. The following applies: Trypanosoma brucei, STIB900; STIB 900 strain, blood stream form, 72 hours, Alamar Blue; read-out: 50% growth inhibiting concentration Trypanosoma brucei rhod. Here is the method:
In the present example, protozoa of Trypanosoma brucei rhodensiense (STIB 900 strain), a trypamastigote living in blood stream, was used. The medium used in the experiment was a MEM medium which was sterilized with a filter and supplemented with 25 mM N-2-hydroxyethylpiperazine-2-ethansulfonic acid […]), 1 g/L glucose, 1% MEM non-essential amino acid, 0.2 mM 2-mercaptoethanol, 2 mM sodium pyruvate, 0.1 mM hypoxanthine, and 15% heat-treated horse serum. The protozoa was cultured in an atmosphere of CO2 concentration 5%, at a temperature of 37° C.
The compounds of the present invention to be used in the present test and the positive target drug (melarsoprol) were dissolved in DMSO to make a test solution of a predetermined concentration. A medium containing 8×10^3 protozoa, and a test solution containing a drug of a predetermined concentration or a drug-free DMSO were added to wells of a 96-well culture plate, and subsequently, medium was added so that the amount in each well becomes 100 μL. Test solutions were taken by duplicates. After culturing the culture plate for 72 hours in an incubator, growth inhibition activity was tested. Test was conducted as follows. 10 μL of Alamar Blue aqueous solution was added to each well, and the resultant was further cultured for 2 hours. Next, the culture plate was placed on a fluorescent micro-plate reader (Spectramax Gemeni XS; US Molecular Device), radiated at an excited wavelength of 536 nm. Fluorescent intensity was measured at 588 nm, to calculate the trypanosome protozoa infected rate of the test solution added-group, and of the control group. From the protozoan infection rate obtained in the above, growth inhibition rate was calculated with the following formula, to obtain a 50% growth inhibition concentration (EC50). Growth inhibition rate (%)={1−(b−a)/(c−a)}×100 a: early infection rate b: infection rate when test solution was added c: infection rate of the control

Data set [3] relates to Trypanosoma cruzi (Tulahuen C2C4 strain). Put plainly: American trypanosome protozoa growth inhibition screening test. On the procedure:
In the present example, amastigote and trypomastigote infected with rat L6 cells of protozoa of Trypanosoma cruzi (Tulahuen C2C4 strain) were used. As medium used in the test, RPMI 1640 medium containing L6 cells was supplemented so that L-glutamine (200 mM) becomes 1%, fetal bovine serum becomes 10%, which was cultured under CO2 concentration 5%, at 37° C.
The compounds of the present invention to be used in the test and the positive target agent (benznidazole) were dissolved in DMSO to make a test solution of a predetermined concentration. A medium containing 5×10^3 protozoa was added to wells of a 96-well culture plate, and pre-cultured for 48 hours. After replacing the medium, test solution containing drug of a predetermined concentration or a drug-free DMSO was added. Test solutions were taken by duplicates. After culturing the culture plate in an incubator for 96 hours, growth inhibition activity was tested. Test was conducted as follows.
50 μL of CPRG/Nonidet was added to each well, and allowed to rest for 2 to 6 hours. Next, the culture plate was placed on a fluorescent micro-plate reader, and the absorbance was measured at 540 nm. Growth inhibition rate was calculated with the following formula based on the protozoan infection rate which was obtained by calculating trypanosome infection rate of the test solution added group and control group, to obtain a 50% growth inhibition concentration (EC50). Growth inhibition rate (%)={1−(b−a)/(c−a)}×100 a: early infection rate b: infection rate when test solution was added c: infection rate of the control

Data set [4] concerns Leishmania donovani (MHOM/ET/67/L82 strain). Put plainly: Leishmania protozoa growth inhibition screening test. The following applies: Leishmania donovani; MHOM/ET/67/L82 strain amastigote, pH 5.4, 72 hours, Alamar Blue; read-out: 50% growth inhibition concentration Leishmania donovani. Here is the method: In the present example, Leishmania donovani (MHOM/ET/67/L82 strain) was used. Protozoa was subcultured in Syrian Golden hamster, from which an amastigote was obtained. In the experiment, SM medium supplemented with 10% heat-treated bovine fetal serum was used, which was adjusted to pH 5.4, and cultured in an atmosphere of 5% CO2 concentration, at 37° C.
The compounds of the present invention to be used in the present test and the positive target drug (miltefosine) were dissolved in DMSO to make a test solution of a predetermined concentration. After adding a medium containing a predetermined number of protozoa to wells of a 96-well culture plate and pre-treating, concentration of the amastigote was measured with CASY cell analysis system (Scharfe, Germany). Then, test solution containing a drug of a predetermined concentration or a drug-free DMSO was added. Test solutions were taken by duplicates. After culturing the culture plate for 72 hours in an incubator, growth inhibition activity was tested. Test was conducted as follows.
10 μL of Alamar Blue aqueous solution was added to each well, and the resultant was further cultured for 2 hours. Next, the culture plate was placed on a fluorescent micro-plate reader (Spectramax Gemeni XS; US Molecular Device), radiated at an excited wavelength of 536 nm. Fluorescent intensity was measured at 588 nm, and infection rate of leishmania protozoa of the test solution added-group and control was calculated, to obtain a 50% growth inhibition concentration (EC50). Growth inhibition rate (%)={1−(b−a)/(c−a)}×100 a: early infection rate b: infection rate when test solution was added c: infection rate of the control

Data set [5] concerns Trypanosoma brucei rhodensiense (STIB 900 strain). Put plainly: African trypanosome protozoa growth inhibition screening test. To be noted: chemotherapy index = EC50 rat L6 cells / EC50 African trypanosome protozoa.
Data set [6] has as its system Leishmania donovani (MHOM/ET/67/L82 strain). Put plainly: Leishmania protozoa growth inhibition screening test. The following applies: chemotherapy index = EC50 rat L6 cells / EC50 leishmania protozoa.

For the compound `CCC[n+]1c(/C=c2\s/c(=C\C=C3/SCCN3CC)c(=O)n2CC)sc2c3ccccc3ccc21` [A-16], the EC50 at 72 h in data set [1] is 940 nM. Moreover, the EC50 in data set [2] stood at 30 nM; in data set [3] (Trypanosoma cruzi, Tulahuen C2C4 strain in rat L6 cells, 96 hours, CPRG/Nonidet, read-out: 50% growth inhibition concentration Trypanosoma cruzi), 90 nM; in data set [4], 8 nM. Further, the values for the Selective toxicity in data set [3] (chemotherapy index = EC50 rat L6 cells / EC50 American trypanosome protozoa), in data set [5] and in data set [6] were 10, 31 and 120, respectively.
